These are literature values, as cited in patent US20020110580A1, “Nutritional composition for improving the efficacy of a lipase inhibitor” (priority 2000, published 2002).

For data set [1] the following is noted: individuals receiving CCK.

Regarding `CCCCCCCCCCC[C@@H](C[C@@H]1OC(=O)[C@H]1CCCCCC)OC(=O)[C@H](CC(C)C)NC=O` [Orlistat, tetrahydrolipstatin], the “gastric emptying of both the solid and fat phases of a mixed meal” value is listed as “accelerated”. Moreover, the CCK release result (mixed meal) is reported as “decreased”.

B1: Cholecystokinin (peptide, UniProt P06307 21-115, looked up)
Cholecystokinin: QPVPPADPAGSGLQRAEEAPRRQLRVSQRTDGESRAHLGALLARYIQQARKAPSGRMSIVKNLQNLDPSHRISDRDYMGWMDFGRRSAEEYEYPS
modifications: Cholecystokinin
Consider B1, for which, in data set [1], the “reduction in caloric intake” value is recorded as 16-22%.
